Results reported in patent US20120196884A1, “UREA SUBSTITUTED SULPHONAMIDE DERIVATIVES” (BIOTIE THERAPIES CORPORATION, priority 2009, published 2012).
Entries after “also recorded” stand apart in the source; their conditions may differ.

How the values were obtained:
[1] = test system: platelet adhesion to collagen; assay: Cellix microfluidic system: platelet adhesion to collagen coated capillary under flow; format: cell-based, human; design: key to Inhibition of platelet adhesion to collagen: + indictes that the compound efficiently inhibited the platelet adhesion to collagen; details: for Inhibition of platelet adhesion to collagen: whole blood, collagen coated capillary, shear 90 dynes/cm^2
Description: Cellix microfluidic platform models human blood vessels providing a dynamic set-up mimicking physiological conditions to test new therapeutic agents (Cellix Ltd). The platform was used to measure the platelet adhesion to collagen coated capillary under flow. An anti-coaculated whole blood sample was run through a collagen coated capillary under a constant shear and the size of thrombi on capillary wall was analyzed with analysis program (DucoCell, Cellix Ltd).
The capillary were coated with Horm collagen 20 μg/mL (Nycomed) and incubated for 24 h in +4° C. Background was blocked with 1% BSA (bovine serum albumin, Sigma) treatment for 30 min in room temperature. Blood was collected from a donor into blood collection tubes containing 40 μM PPACK (Dphenylalanyl-L-prolyl-L-arginine chloromethyl-ketone, Calbiochem) as anticoagulant. Blood was treated either with inhibitory compounds or vehicle controls. Samples were kept at room temperature for 5 minutes. The samples were run through the capillary with the constant shear rate (90 dynes/cm^2, Mirus 1.0 Nanopump, Cellix Ltd) for 5 min and capillary was washed with JNL buffer (6 mM Dextrose, 0.13 M NaCl, 9 mM Na Bicarb, 10 mM Na Citrate, 10 mM Tris base, 3 mM KCl, 0.81 mM KH2PO4, 0.9 mM MgCl2; pH was adjusted to 7.35 with 19 mM Citrate acid anhydrous, 37 mM Sodium citrate, 67 mM Dextrose) with the constant shear rate (90 dynes/cm^2) for 2 min. After that the average thrombi area on the capillary wall was analyzed with DucoCell analysis program (Cellix Ltd).

[2] = test system: PC-3 cells; assay: PC-3 cell invasion through Matrigel; format: cell-based; details: Homo sapiens, 72 hours
Text: The overexpression regulates cell adhesion and migration to and invasion through the extracellular matrix. By blocking the interaction between extracellular matrix components like collagen and α2β1 it is possible to block cancer cell migration and invasion in vitro. Prostate cancer cells (PC-3) expressing α2β1 endogenously were used to test the in vitro anticancer potential of the inhibitors of the present invention.
Invasion of PC-3 cells (CRL-1435, ATCC) through Matrigel was studied using BD Biocoat invasion inserts (BD Biosciences). Inserts were stored at −20° C. Before the experiments inserts were allowed to adjust to the room temperature. 500 μl of serum free media (Ham's F12K medium, 2 mM Lglutamine, 1.5 g/l sodium bicarbonate) was added into the inserts and allowed to rehydrate at 37° C. in cell incubator for two hours. The remaining media was aspirated. PC-3 cells were detached, pelleted and suspended into serum free media (50 000 cells/500 μL). 300 μL of cell suspension was added into the insert in the absence (control) or presence of the inhibitor according to the present invention. Inserts were placed on the 24-well plates; each well containing 700 μL of cell culture media with 3% of fetal bovine serum as chemoattractant. Cells were allowed to invade for 72 hours at 37° C. in cell incubator. Inserts were washed with 700 μL PBS, and fixed with 4% paraformaldehyde for 10 minutes. Paraformaldehyde was aspirated and cells were washed with 700 μL of PBS and inserts were stained by incubation with hematoxylin for 1 minute. The stain was removed by washing the inserts with 700 μL of PBS. Inserts were allowed to dry. Fixed invaded cells were calculated under the microscope. Invasion % was calculated as a comparison to the control.

[3] = test system: whole blood; assay: PFA-100 platelet function analyzer, closure time of whole blood; format: cell-based; details: PFA-100 analysis, collagen and ADP membrane
Description: The PFA-100 is a high shear-inducing device that simulates primary haemostasis after injury of a small vessel. The system comprises a test-cartridge containing a biologically active membrane coated with collagen and ADP. An anticoaculated whole blood sample was run through a capillary under a constant vacuum. […] The time required to obtain full occlusion of the aperture was designated as the closure time. Each compound was added to the whole blood sample and the closure time was measured with PFA-100.
Blood was collected from a donor via venipuncture into evacuated blood collection Lithium heparin tubes (VenoJect, Terumo). Blood was aliquoted into 1.5 mL tubes and treated with either inhibitory compounds or controls (DMSO). Samples were kept at room temperature with rotation for 10 minutes and after that the closure time (Ct) of the blood was measured.

[4] = test system: IL-6; assay: LPS-induced IL-6 release in whole blood; format: cell-based, human; details: LPS 0.25 ng/mL, 2 h
Description: The inflammatory cells are shown to be dependent on α2β1 function during inflammatory process. The anti-inflammatory potential of the α2β1 modulators was studied by measuring the effect on the release of cytokines like IL-6 as an example from inflammatory cells. Lipopolysaccharide (LPS) was used to induce the production of IL-6. Anticoaculated whole blood sample was incubated with or without the integrin α2β1 inhibitor before LPS was added to induce the cytokine release. The amount of cytokine IL-6 released from peripheral blood leukocytes was measured from plasma samples 2 hours after the induction.
Blood was collected from the donors via venipuncture into evacuated Lithium heparin tubes (VenoJect, Terumo). Blood was treated with either α2β1 integrin inhibitors or vehicle control (DMSO). Samples were kept at room temperature for 5 minutes and lipopolysaccharide (LPS, 0.25 ng/mL) was added to induce cytokine release from peripheral blood lymphocytes. Samples were inculabted for 2 h in 37° C., the plasma was isolated and the amount of IL-6 was determined with Human IL-6 Quantikine ELISA Kit (R&D Systems).

Row | Compound | Inhibition of platelet adhesion to collagen [1] | inhibition at 5 µM [2] [%] | further results
1 | O=C(Nc1ccncc1)Nc1ccc(NS(=O)(=O)c2cccc(-c3ccc(F)cc3)c2)cc1 [Compound B93] | + | – | –
2 | Cc1ccccc1NC(=O)Nc1ccc(NS(=O)(=O)c2cccc(-c3ccc(F)cc3)c2)cc1 [Compound B64] | – | 42 | –
3 | O=C(Nc1ccccc1)Nc1ccc(NS(=O)(=O)c2cccc(-c3ccc(F)cc3)c2)cc1 [Compound B94] | + | 40 | closure time (Ct) of the whole blood [3]: increases the closure time (Ct)
4 | CN(c1ccc(NC(=O)Nc2ccccc2)cc1)S(=O)(=O)c1cnn(-c2ccc(F)cn2)c1 [Compound B1] | + | – | platelet adhesion to collagen coated capillary under flow (FIG. 1) ([1]; Cellix analysis, flow conditions): dose dependent inhibitory effect; also recorded: inhibits the platelet adhesion to collagen coated capillary under mimicking physiological flow conditions dose dependently
5 | CN(c1ccc(NC(=O)Nc2ccccc2)cc1)S(=O)(=O)c1cccc(C#N)c1 [Compound B78] | + | 30 | –
6 | Cc1ccc(NC(=O)NCc2ccccc2)cc1NS(=O)(=O)c1cccc(-c2ccc(F)cc2)c1 [Compound B67] | + | 10 | –
7 | COc1ccc(-n2cc(S(=O)(=O)N(C)c3ccc(NC(=O)Nc4ccccc4)cc3)cn2)cn1 [Compound B109] | + | – | –
8 | CN(c1ccc(NC(=O)Nc2ccccc2)cc1)S(=O)(=O)c1ccc(-c2ccccn2)s1 [Compound B11] | + | – | –
9 | O=C(Nc1ccccc1)Nc1cc(NS(=O)(=O)c2cccc(-c3ccc(F)cc3)c2)ccc1Cl [Compound B47] | – | 96 | –
10 | CN(c1ccc(NC(=O)Nc2ccccc2)cc1)S(=O)(=O)c1cccc(OC(F)F)c1 [Compound B68] | – | 29 | –
11 | O=C(NCc1ccccc1)Nc1ccc(NS(=O)(=O)c2cccc(-c3ccc(F)cc3)c2)cc1 [Compound B91] | – | 56 | –
12 | CN(c1ccc(NC(=O)Nc2ccccc2)cc1)S(=O)(=O)c1cncc(-c2ccc(F)cc2)c1 [Compound B52] | – | 25 | –
13 | Cc1ccc(NC(=O)Nc2ccccc2)cc1NS(=O)(=O)c1cccc(-c2ccc(F)cc2)c1 [Compound B40] | + | 98 | –
14 | CN(c1ccc(NC(=O)Nc2ccccc2)cc1)S(=O)(=O)c1ccc(Cl)cc1Cl [Compound B77] | – | 40 | –
15 | Cc1nn(-c2ccc(F)cc2)c(C)c1S(=O)(=O)N(CCCO)c1ccc(NC(=O)Nc2ccccc2)cc1 [Compound B54] | + | – | –
16 | Cc1ccc(NC(=O)Nc2ccccc2)cc1N(C)S(=O)(=O)c1cccc(-c2ccc(F)cc2)c1 [Compound B63] | – | 45 | –
17 | CN(C)c1ccc(-c2ccc(S(=O)(=O)N(C)c3ccc(NC(=O)Nc4ccccc4)cc3)s2)cn1 [Compound B7] | + | – | –
18 | CN(c1ccc(NC(=O)Nc2ccccc2)cc1)S(=O)(=O)c1ccc(-c2cc(C(F)(F)F)nn2C)s1 [Compound B19] | + | – | –
19 | CN(c1ccc(NC(=O)Nc2ccncc2)cc1)S(=O)(=O)c1cccc(-c2ccc(F)cc2)c1 [Compound B75] | – | 38 | –
20 | CN(c1ccc(NC(=O)Nc2ccccc2)cc1)S(=O)(=O)c1ccc(-n2ccnc2)s1 [Compound B17] | + | – | –
21 | CN(c1ccc(NC(=O)Nc2ccccc2)cc1)S(=O)(=O)c1cc(C(F)(F)F)ccc1Cl [Compound B80] | – | 43 | –
22 | O=C(Nc1ccccc1)Nc1ccc(N(CCCO)S(=O)(=O)c2cccc(-c3ccc(F)cc3)c2)cc1 [Compound B33] | + | – | –
23 | CN(c1ccc(NC(=O)Nc2ccccc2)cc1)S(=O)(=O)c1ccc(-c2ccnn2C)s1 [Compound B6] | – | – | release of IL-6 after induction with LPS [4]: decreases the release of cytokines like IL-6
24 | CN(c1ccc(NC(=O)Nc2ccccc2)cc1)S(=O)(=O)c1cccc(-c2ccc(F)cc2)c1 [Compound B55] | – | 76 | –
25 | COc1ccc(NC(=O)Nc2ccc(NS(=O)(=O)c3cccc(-c4ccc(F)cc4)c3)cc2)cc1 [Compound B72] | – | 39 | –
26 | CN(c1ccc(NC(=O)Nc2ccccc2)cc1)S(=O)(=O)c1cnn(-c2ccc(F)cc2)c1 [Compound B3] | + | – | –
27 | Cc1ccccc1NC(=O)Nc1ccc(C)c(NS(=O)(=O)c2cccc(-c3ccc(F)cc3)c2)c1 [Compound B42] | + | – | –
28 | O=C(Nc1ccccc1)Nc1ccc(Cl)c(NS(=O)(=O)c2cccc(-c3ccc(F)cc3)c2)c1 [Compound B86] | – | 44 | –
29 | COCCOc1cccc(NC(=O)Nc2ccc(NS(=O)(=O)c3cccc(-c4ccc(F)cc4)c3)cc2)c1 [Compound B60] | + | 70 | –
